Results on 1 compound are retold here after publication PMC10669220, “In Vitro α-Glucosidase and α-Amylase Inhibition, Cytotoxicity and Free Radical Scavenging Profiling of the 6-Halogeno and Mixed 6,8-Dihalogenated 2-Aryl-4-methyl-1,2-dihydroquinazoline 3-Oxides” (Antioxidants, 2023).

Structures are written as SMILES.

Data set [1] concerns NO generated from nitric oxide synthase (NOS). The data set is described as follows: Inhibitory activity against NO generated from NOS (EnzyChrom kit). The following applies: mean ± SD, 1-50 µM. The class given is biochemical.
In data set [2] the test system is lung cancer (A549) cell line. As to the kind of experiment: MTT cytotoxicity assay, A549. To be noted: for Cell viability percentage, A549: Table S3. For orientation: Formazan colour is commonly taken as a measure of viable cells.
The test system of data set [3] is human embryonic kidney (HEK293-T) cell line. As to the kind of experiment: MTT cytotoxicity assay, HEK293-T. The following applies: Homo sapiens, HEK-293T, read-out: IC50 Hek293-T.
Method: Cells were cultured in sterile Dulbecco’s Minimal Essential Medium (DMEM, Gibco) supplemented with 10% fetal bovine serum (FBS) and 1% penicillin-streptomycin solution. […] Cell counting was carried out using a handheld automated cell counter (Scapter 3.0™, Merck, Burlington, MA, USA) and seeded (1 × 10^4 cells/well) into a 96-well plate. After 24 h, the cells were treated with different concentrations (1, 5, 10, 25 and 50 µM) of the test compounds and reference standards prepared in DMEM. The MTT solution (20 μL) prepared in PBS (5 mg/mL) was added to all the wells, and the plates were incubated for 4 h, followed by 1 h incubation with 100 µL of dimethyl sulfoxide (DMSO) to dissolve the formazan crystals. Untreated cells and 5% DMSO were included in the experiment as negative controls. All experiments were performed in triplicate. The plates were read at 570 nm at a reference wavelength of 630 nm using an ELISA plate reader (Varioskan Flash, ThermoFisher Scientific, Vantaa, Finland). The percentage of cell viability was calculated using the following formula, Cell viability %=At/Ab×100 where At represents the absorbance value of test compound and Ab the absorbance value of the blank. […] The data were expressed as means ± SD.

As for `CC1=[N+]([O-])C(c2ccccc2)Nc2c(I)cc(Br)cc21` (centres unmarked) [Compound 3i], the half-inhibitory concentration (IC50) stood at 29.08 ± 0.004 µM in data set [1]; 16.85 ± 0.05 µM in data set [2] (Homo sapiens, A549, read-out: IC50 A549); 34.9 ± 0.13 µM in data set [3]. Further, the “Cell viability percentage, A549” value in data set [2] (Conc. 1 (µM per method)) is listed as 84,0927%; in data set [2] (Conc. 5 (µM per method)), 69,8954%; in data set [2] (Conc. 10 (µM per method)), 61,098%; in data set [2] (Conc. 25 (µM per method)), 43,9195%; in data set [2] (Conc. 50 (µM per method)), 23,0847%.

A word on the IC50: it is the concentration that gives 50% inhibition.
